Source: paper PMC3693846 (Cellular and molecular neurobiology, 2013)

Test system: L-type voltage-gated calcium channel (subtype not resolved)
Assay type: cell-based

For `CC(C)n1cnc2c(NCCCCCCNC(=O)OC(C)(C)C)nc(NCCO)nc21` [CK59, 2-(2-Hydroxyethylamino)-6-aminohexylcarbamic acid tert-butyl ester-9-isopropylpurine], the “% decrease of current at 50 μM” value was 67.47 % decrease of current at 50 μM.
